Measured values reported in patent US11660324B2, “Copper complexes for treatment of neurodegenerative disorders” (ALS Therapy Development Institute, priority 2019, dated 2023).

Legend:
[1] = Pharmacokinetics of CuPTSM compared to CuATSM (plasma and spinal cord) after single oral bolus; type: in vivo; settings: single oral bolus 30 mg/kg, SOD1^G93A mice
Description: The SOD1^G93A transgenic mouse model of ALS has been the most widely used animal model since the 1990s. The mouse was genetically engineered to overexpress a mutant form of the human Cu/Zn superoxide dismutase 1 (SOD1) gene harboring an ALS-associated glycine to alanine mutation at amino acid position 93 (G93A). Currently, the clinical strategy for the treatment of ALS with CuATSM is to escalate human dosing until ALS patients show plasma levels equivalent to those seen in mice given 30 mg/kg/day.
To compare the effects of CuPTSM to CuATSM in vivo, a single bolus of 30 mg/kg CuPTSM or 30 mg/kg CuATSM in an oral suspension of 0.5% methylcellulose/0.4% TWEEN-80/0.9% normal saline was administered to SOD1^G93A mice. Absorption half-life, elimination half-life, and Cmax measurements were taken from both plasma and spinal cord samples to measure drug exposure of CuPTSM or CuATSM for up to 6 hr after administration of drug.
Similar measurements were recorded for concentrations of CuPTSM and CuATSM in the spinal cord. […] As with the plasma concentrations, the spinal cord concentrations of CuATSM remained constant, even 6 hr after administration (FIG. 2B).

mice = experiment: Tolerability in mice (previous studies); type: in vivo; settings: 30 mg/kg
[2] = Pharmacokinetic simulation of repeated dosing, linear kinetics assumed; parameters: species or system mice; settings: simulation from single-dose PK parameters
Description: FIG. 3A is a simulation using PK parameters derived from the experiment of FIG. 1A and FIG. 1B, assuming linear pharmacokinetics. Plasma concentrations (ng/mL) in mice receiving 6 mg/kg CuPTSM, 30 mg/kg CuATSM, or 100 mg/kg CuATSM are depicted over time (hours). FIG. 3B is a simulation using PK parameters derived from the experiment of FIG. 1A and FIG. 1B, assuming linear pharmacokinetics. Spinal cord concentrations (ng/mL) in mice receiving 6 mg/kg CuPTSM, 30 mg/kg CuATSM, or 100 mg/kg CuATSM are depicted over time (hours).
Using the data and parameters derived from the above experiments using a single bolus of 6 mg/kg CuPTSM, 30 mg/kg CuATSM, or 100 mg/kg CuATSM, plasma and spinal cord concentrations were recorded on a plot over time (hours) to illustrate pharmacokinetic simulations over time. Linear kinetics were assumed. […] Similar results were obtained when concentrations were measured in spinal cord samples (FIG. 3B).

SOD1^G93A mice [3] = experiment: Onset of paresis by neurological scoring; type: in vivo
Description: (§1) To test the efficacy of CuPTSM compared to CuATSM, mice were tested for delays in paresis and overall lifespan. Mice were given 6 mg/kg CuPTSM (n=32), 30 mg/kg CuATSM (n=32), and 100 mg/kg CuATSM (n=32) once a day to assess disease progression, and identify drug-induced changes in SOD1^G93A mice compared to their respective vehicle-only control mice. Neurological scoring to test the onset of paresis for each mouse was performed throughout the study according to the protocol as disclosed in Hatzipetros et al. (2015, J. Visualized Experiments. doi:10.3791/53257), incorporated herein by reference in its entirety. Briefly, mice were scored on a scale of NS 0 (pre-symptomatic) to NS 4 (humane end-point) based on a combination of a tail suspension test, a walking test, and a “righting reflex” test.
(§2) To compare the effects of CuPTSM administered at a much lower dose than CuATSM, mice were administered 6 mg/kg […] and survival and onset of paresis were measured as before.

SOD1^G93A mice [4] = experiment: Survival / lifespan; type: in vivo
Description: as §1
Survival for each cohort was also tracked throughout the study.
as §2

male SOD1^G93A mice = experiment: Compound muscle action potential (CMAP), sciatic nerve / tibialis anterior; type: in vivo
Description: Compound muscle action potential (CMAP) was measured in mice given CuPTSM, CuATSM, or vehicle. CMAP is an electrophysiological technique that assess functional integrity of motor axons. The sciatic nerve is stimulated using implanted microelectrodes proving small electrical currents, and the response is measured in the innervated tibialis anterior (TA) muscle using an implanted recording electrode. It is known that the CMAP signal is decreased in the case of neuromuscular diseases, like in ALS patients, and recapitulated in the SOD1^G93A mouse model due to motor unit loss. In male SOD1^G93A mice, it has been shown that CMAP changes may happen as early as age day 50 and invariably worse after. In the present study, mice were treated once a day for 14 days with 2, 6, or 12 mg/kg CuPTSM; 10 or 30 mg/kg CuATSM; or vehicle (control). A total of 9 male mice were tested for each condition.
Prior to drug administration and assignment of mice to a cohort, CMAP was recorded for each mouse to establish a baseline measurement. Mice were then randomized into each treatment cohort, and administered the respective compounds and dosages of the cohort via oral gavage daily for two weeks. CMAP data was recorded at the end of the two weeks, and compared to the baseline measurements to calculate percent of baseline to illustrate the efficacy of CuPTSM and CuATSM compared to just vehicle.

| SMILES | absorption half-life ([1]; plasma) | elimination half-life ([1]; plasma) | plasma Cmax ([1]; plasma) | Cmax ([1]; spinal cord) | absorption half-life ([1]; spinal cord) | elimination half-life ([1]; spinal cord) | tolerability in mice (mice) | onset of paresis compared to control (SOD1^G93A mice [3]; 6 mg/kg once a day) | survival compared to control (SOD1^G93A mice [4]; 6 mg/kg once a day) | further results |
| --- | --- | --- | --- | --- | --- | --- | --- | --- | --- | --- |
| CN=C([S-])N/N=C(C)/C(C)=N/NC([S-])=NC.[Cu+2] [CuATSM] | 0.24 h | 13.7 h | 198 ng/mL | 2 ng/mL | 0.65 h | 13.8 h | well-tolerated | no significant improvement in onset of paresis | no significant difference in survival | simulated plasma concentration before the next dose ([2]; 30 mg/kg): did not return to 0 ng/mL prior the next dose; simulated plasma concentration before the next dose ([2]; 100 mg/kg): did not return to 0 ng/mL prior the next dose; onset of paresis compared to control (SOD1^G93A mice [3]; 30 mg/kg once a day): delaying onset over the control; onset of paresis compared to control (SOD1^G93A mice [3]; 100 mg/kg once a day): delaying onset over the control; survival compared to control (SOD1^G93A mice [4]; 30 mg/kg once a day): increase in survival over the control counterparts; survival compared to control (SOD1^G93A mice [4]; 100 mg/kg once a day): increase in survival over the control counterparts; CMAP change from baseline compared to vehicle (male SOD1^G93A mice; 10 mg/kg oral gavage once a day for 14 days): no significant difference in CMAP measurements; CMAP change from baseline compared to vehicle (male SOD1^G93A mice; 30 mg/kg oral gavage once a day for 14 days): no significant difference in CMAP measurements |
| CN=C([S-])N/N=C/C(C)=N/NC([S-])=NC.[Cu+2] [CuPTSM, copper PTSM] | 0.54 h | 2.44 h | 1565 ng/mL | 7.27 ng/mL | 1.0 h | 1.9 h | toxic to mice | delaying onset over the control | increase in survival over the control counterparts | simulated plasma concentration before the next dose ([2]; 6 mg/kg): plasma levels returned to 0 ng/mL prior to the next dose; delay of onset of paresis compared to CuATSM 30 and 100 mg/kg groups (each over its respective control) (SOD1^G93A mice [3]; 6 mg/kg once a day): significantly delayed onset of paresis over CuATSM; survival compared to CuATSM 30 and 100 mg/kg groups (SOD1^G93A mice [4]; 6 mg/kg once a day): markedly improved survival; CMAP change from baseline compared to vehicle (male SOD1^G93A mice; 2 mg/kg oral gavage once a day for 14 days): significantly greater change from baseline; CMAP change from baseline compared to vehicle (male SOD1^G93A mice; 6 mg/kg oral gavage once a day for 14 days): significantly greater change from baseline; CMAP change from baseline compared to vehicle (male SOD1^G93A mice; 12 mg/kg oral gavage once a day for 14 days): significantly greater change from baseline |
